Measured values taken from ChEMBL document CHEMBL1156541 (Bioorg Med Chem, 2008).

Experiments:
[1] = Octanol-water partition coefficient, log P of the compound; assay type: physicochemical
[2] = biological target: cGMP-specific 3',5'-cyclic phosphodiesterase (Homo sapiens, UniProt O76074); test: Inhibition of PDE5

| IC50 [2] [nM] | SMILES | other results |
| --- | --- | --- |
| 7.08 | CCOc1ccc([C@@H]2c3[nH]c4ccccc4c3C[C@@H]3C(=O)N(C4CCCCC4)C(=O)N23)cc1 | – |
| 2000 | CCCCN1C(=O)[C@H]2Cc3c(n(C)c4ccccc34)[C@H](c3ccc(OC)cc3)N2C1=O (relative stereo) | – |
| 50.1 | CCCCN1C(=O)[C@H]2Cc3c([nH]c4ccccc34)[C@@H](c3ccc(Cl)cc3)N2C1=O (relative stereo) | – |
| 91.2 | CCCCN1C(=O)[C@H]2Cc3c([nH]c4ccccc34)[C@@H](c3cccnc3)N2C1=O (relative stereo) | – |
| 302 | CCCCN1C(=O)[C@H]2Cc3c([nH]c4ccccc34)[C@H](c3ccc(C#N)cc3)N2C1=O (relative stereo) | – |
| 50.1 | CCCCN1C(=O)[C@H]2Cc3c([nH]c4ccccc34)[C@@H](c3cccc(Cl)c3)N2C1=O (relative stereo) | – |
| 912 | CCCCN1C(=O)[C@H]2Cc3c([nH]c4ccccc34)[C@@H](c3ccc(C#N)cc3)N2C1=O (relative stereo) | – |
| 100 | CCCCN1C(=O)[C@H]2Cc3c([nH]c4ccccc34)[C@@H](c3ccoc3)N2C1=O (relative stereo) | – |
| 30.2 | CCCCN1C(=O)[C@H]2Cc3c([nH]c4ccccc34)[C@@H](c3ccsc3)N2C1=O (relative stereo) | – |
| 302 | CCCCN1C(=O)[C@H]2Cc3c([nH]c4ccccc34)[C@@H](c3ccncc3)N2C1=O (relative stereo) | – |
| 20 | CCCCN1C(=O)[C@H]2Cc3c([nH]c4ccccc34)[C@H](c3ccccc3)N2C1=O (relative stereo) | – |
| 20 | CCCCN1C(=O)[C@H]2Cc3c([nH]c4ccccc34)[C@H](c3ccc(Cl)cc3)N2C1=O (relative stereo) | – |
| 60.3 | CCCCN1C(=O)[C@H]2Cc3c([nH]c4ccccc34)[C@@H](c3ccccc3)N2C1=O (relative stereo) | – |
| 3.98 | CCOc1ccc([C@@H]2c3[nH]c4ccccc4c3C[C@@H]3C(=O)N(Cc4ccccc4)C(=O)N23)cc1 (relative stereo) | – |
| 30.2 | CCOc1ccc([C@H]2c3[nH]c4ccccc4c3C[C@@H]3C(=O)N(CCN(C)C)C(=O)N23)cc1 (relative stereo) | – |
| 20 | CCOc1ccc([C@H]2c3[nH]c4ccccc4c3C[C@@H]3C(=O)NC(=O)N23)cc1 (relative stereo) | – |
| 10 | CCOc1ccc([C@@H]2c3[nH]c4ccccc4c3C[C@@H]3C(=O)N(C)C(=O)N23)cc1 (relative stereo) | – |
| 6.03 | CCOc1ccc([C@H]2c3[nH]c4ccccc4c3C[C@@H]3C(=O)N(CCc4ccccn4)C(=O)N23)cc1 (relative stereo) | – |
| 18.2 | CCOc1ccc([C@H]2c3[nH]c4ccccc4c3C[C@@H]3C(=O)N(Cc4ccccc4)C(=O)N23)cc1 (relative stereo) | – |
| 100 | CCOc1ccc([C@H]2c3[nH]c4ccccc4c3C[C@@H]3C(=O)N(CCn4cccc4)C(=O)N23)cc1 (relative stereo) | – |
| 50.1 | CCCCN1C(=O)[C@H]2Cc3c([nH]c4ccccc34)[C@H](c3cccc(Cl)c3)N2C1=O (relative stereo) | – |
| 1000 | CCCCN1C(=O)[C@H]2Cc3c([nH]c4ccccc34)[C@H](c3ccccc3OC)N2C1=O (relative stereo) | – |
| 7.08 | CCOc1ccc([C@H]2c3[nH]c4ccccc4c3C[C@@H]3C(=O)N(CC)C(=O)N23)cc1 (relative stereo) | – |
| 3.02 | CCOc1ccc([C@H]2c3[nH]c4ccccc4c3C[C@@H]3C(=O)N(C4CCCCC4)C(=O)N23)cc1 (relative stereo) | – |
| 20 | CCOc1ccc([C@H]2c3[nH]c4ccccc4c3C[C@@H]3C(=O)N(Cc4cccnc4)C(=O)N23)cc1 (relative stereo) | – |
| 10 | CCOc1ccc([C@@H]2c3[nH]c4ccccc4c3C[C@@H]3C(=O)N(CC)C(=O)N23)cc1 (relative stereo) | – |

Continued, molecule first:

| SMILES | IC50 [2] [nM] | other results |
| --- | --- | --- |
| CCCc1nc(C)c2c(=O)[nH]c(-c3cc(S(=O)(=O)N4CCN(CC)CC4)ccc3OCC)nn12 | – | logP [1]: 2.56 |
| CCCc1nn(C)c2c(=O)[nH]c(-c3cc(S(=O)(=O)N4CCN(C)CC4)ccc3OCC)nc12 | – | logP [1]: 2.51 |
| CCCc1n[nH]c2c(=O)[nH]c(-c3ccccc3)nc12 | 81.3 | – |
| CCCCN1C(=O)c2nc(-c3cc(S(=O)(=O)N4CCN(C)CC4)ccc3OCC)[nH]c(=O)c2C1=O | – | logP [1]: 1.86 |
| CCCCN1C(=O)[C@H]2CC=C(c3cc(S(=O)(=O)N4CCN(C)CC4)ccc3OCC)CN2C1=O | – | logP [1]: 2.4 |
| CCCCN1C(=O)[C@H]2CC=C(c3cc(S(=O)(=O)N4CCN(CC)CC4)ccc3OCC)CN2C1=O | – | logP [1]: 2.77 |
| CCCc1nn(C)c2c(=O)[nH]c(-c3cc(S(=O)(=O)N4CCC(C(N)=O)CC4)ccc3OCC)nc12 | 2.09 | – |
| CCOc1ccc(S(=O)(=O)N2CCN(CC)CC2)cc1C1=CC[C@@H]2C(=O)N(C)CC(=O)N2C1 | – | logP [1]: 0.792 |
| CCCc1nn(C)c2c(=O)[nH]c(-c3ccccc3)nc12 | 4470 | – |
| CCOc1ccc(S(=O)(=O)N2CCN(C)CC2)cc1C1=CC[C@@H]2C(=O)N(C)CC(=O)N2C1 | – | logP [1]: 0.416 |
| CCCCN1C(=O)[C@H]2CNC(c3cc(S(=O)(=O)N4CCN(CC)CC4)ccc3OCC)=NN2C1=O | – | logP [1]: 1.25 |
| CCCCN1C(=O)[C@H]2C(=O)NC(c3cc(S(=O)(=O)N4CCN(CC)CC4)ccc3OCC)=NN2C1=O | – | logP [1]: 0.574 |
| CCCCN1C(=O)C2=C(N=C(c3cc(S(=O)(=O)N4CCN(C)CC4)ccc3OCC)NC2)C1=O | – | logP [1]: 0.984 |
| CCCc1nn(C)c2c(=O)[nH]c(-c3ccccc3[N+](=O)[O-])nc12 | – | pIC50 (Inhibition of PDE5): 5.36 |
| CCCc1nn(C)c2c(=O)[nH]c(-c3ccccc3OCC3CC3)nc12 | – | pIC50 (Inhibition of PDE5): 6.02 |
| CCCc1nn(C)c2c(=O)[nH]c(-c3ccccc3O)nc12 | 1000 | – |
| CN1CC(=O)N2[C@H](c3ccc4c(c3)OCO4)c3[nH]c4ccccc4c3C[C@@H]2C1=O | – | logP [1]: 2.36 |
| CCCc1nn(C)c2c(=O)[nH]c(-c3cc(S(=O)(=O)N4CCNCC4)ccc3OCC)nc12 | – | pIC50 (Inhibition of PDE5): 8.24 |
| CCCc1nn(C)c2c(=O)[nH]c(-c3cc(S(=O)(=O)N4CCN(CCO)CC4)ccc3OCC)nc12 [LODENAFIL] | 1.91 | – |
